Measurements taken from patent US20230157991A1, “PHARMACEUTICAL COMPOSITION FOR TREATING ACUTE AND CHRONIC PAIN, CONTAINING POLMACOXIB AND TRAMADOL” (CrystalGenomics, Inc., priority 2017, published 2023).

What was measured:
[1] = test system: MIA-induced osteoarthritis rat model (stomach, liver); assay: Gross necropsy observation after completion of the experiment; conditions: n=10 per group, G5 tramadol HCl 30 mg/kg, oral once daily 3 weeks
[2] = Body weight change and clinical observation in MIA-induced osteoarthritis rat model; conditions: MIA osteoarthritis SD rats, oral once daily 3 weeks; G3 acetaminophen 300 mg/kg+tramadol HCl 30 mg/kg, G4 polmacoxib 0.3 mg/kg, G5 tramadol HCl 30 mg/kg
Procedure: In order to evaluate therapeutic effect of osteoarthritis, an animal model of osteoarthritis was prepared in Sprague Dawley rats (n=10 per group).
1) Monosodium iodoacetate (MIA, I2512, Sigma, Poole, UK) was dissolved in 0.9% sterile saline for injection at a concentration of 60 mg/ml and prepared on the day of the experiment (day 0).
2) After group separation, animals (Sprague Dawley rats) were placed in an anesthesia chamber (Matrix, US/VME-2) and anesthetized using diethyl ether. Thereafter, subjects in the induced group (G2 to G9) were injected once with 50 μl of MIA per subject (MIA 3 mg/head) into a left knee joint space via a patellar tendon using an insulin syringe (BD™ insulin syringe with Ultra-Fine™ Short Needle, 31 gauge). The number of animals in each group was 10, and the negative control group (G1) was injected once with 50 μl of saline at the same position in the left knee joint.
Group separation was performed only on animals judged to have no quarantine abnormalities during acclimation period, followed by MIA administration. On the 6th day after MIA administration, the weight bearing of hind leg for a total of 100 subjects administered with MIA was measured and the affected subjects with high weight bearing of left hind leg were sequentially excluded to select 70 subjects. […]

[3] = test system: MIA-induced osteoarthritis rat model (knee joint); assay: Histological evaluation of knee joint (H&E, safranin O-fast green, modified Mankin score); assay type: in vivo, Sprague Dawley rats; conditions: compared to positive control group G3; G5 tramadol HCl 30 mg/kg, co-administration groups G6 and G7 (both doses)
Procedure: 2) The collected knee joint tissues were immobilized in 10% formalin for 24 hours, and decalcificated for 72 hours while exchanging the solution with 10% formic acid at a 24-hour time interval prior to tissue treatment. The sagittal section of the knee joint was prepared through a coronal section so that the medial and lateral condyle articular surface of femur and tibia were well identified.
3) Subsequently, after a general tissue treatment procedure such as dehydration, clearing and penetration, paraffin embedding was performed and a 5 μm thin slice of knee joint was prepared with a rotary microtome. It was subject to deparaffinization and hydration, followed by Hematoxylin & Eosin (H&E) staining.
4) For safranin-O fast green (SOFG) staining, after deparaffinization and hydration, the thin slice of knee joint was reacted in Weigert's iron hematoxylin solution (HT110232, Sigma, St Louis, USA) for 10 minutes and washed with water, and then stained in 0.02% fast green (FCF) solution (F7258, Sigma, St Louis, USA) for 5 minutes. Subsequently, it was reacted in 1% acetic acid solution and then stained with 0.1% safranin O solution (S2255, Sigma, St Louis). The slide stained with safranin O-fast green was washed for 5 minutes to have clear color of nucleus. After dehydration and clarification, it was sealed. […]

[4] = test system: MIA-induced osteoarthritis rat model (mechanical allodynia); assay: Analgesic efficacy: paw withdrawal threshold (Von Frey, dynamic plantar aesthesiometer) in MIA-induced osteoarthritis rats; assay type: in vivo, Sprague Dawley rats; conditions: G3 acetaminophen 300 mg/kg+tramadol HCl 30 mg/kg, G4 polmacoxib 0.3 mg/kg, G5 tramadol HCl 30 mg/kg
Procedure: To evaluate analgesic efficacy, paw withdrawal threshold (PWT, g) was measured using a dynamic planter aesthesiometer (Ugo Basile S.R.L, Italy).
Von Frey filament used in this experiment has a constant pressure during bending, thereby imparting a constant stimulation. At this time, physical allodynia appears as an avoidance response, thereby enabling quantification of the pain index.
1) The pain suppression effect was measured by imparting physical stimulation with Von Frey filament using Dynamic plantar aesthesiometer (UGO BASILE 37450, Italy).
2) Rats were placed individually in each acrylic cage, allowing the rats to stay for 15 minutes to habituate to the new environment.
3) After habituation, the aesthesiometer was set to 0 ˜ 50 g and 0 ˜ 20 s. The measurement of allodynia by stimulation of the stimulator is performed by stimulating the bottom part of the affected foot, increasing the force incrementally (0-50 g), and measuring the hind paw withdraw threshold (force at the moment when the test body avoided the stimulator:gram) in triplicate at 5 min intervals.
4) The paw withdrawal threshold (PWT) was measured in duplicate at a fixed time within 2 weeks (day 10) and within 3 weeks (day 17) after administration of the test substance.

[5] = test system: MIA-induced osteoarthritis rat model (tissues of liver and stomach); assay: Histopathology of stomach and liver (H&E); assay type: in vivo, Sprague Dawley rats; conditions: G5 tramadol HCl 30 mg/kg; for gastric tissue analysis / gastric irritation, summary in words / epithelial detachment of cardiac gland (stomach histopathology): G4 polmacoxib 0.3 mg/kg; for gastric tissue analysis / gastric irritation, summary in words: co-administration groups G6 and G7 (both doses); for epithelial detachment of cardiac gland (stomach histopathology): mild level in G3 and G4, G3 acetaminophen 300+tramadol HCl 30 mg/kg
From the text: Tissue sections were stained for histological evaluation.
1) Tissues of liver and stomach among isolated organs were sufficiently immobilized in 10% neutral buffered formalin solution, followed by general tissue treatment procedures such as trimming, dehydration and paraffin embedding to prepare tissue sections and cut them to about 4 μm. Thereafter, they were stained with Hematoxylin & Eosin (H&E) and examined microscopically.

MMP-3 = conditions: MIA osteoarthritis SD rats, oral once daily 3 weeks
[6] = 10-day evaluation, induced group G2 14.7 g
[7] = second evaluation (time not given; day 17 per method)

Row | Structure (SMILES) | gastric wall thickening at gross necropsy ([1]; G3 acetaminophen 300 mg/kg+tramadol HCl 30 mg/kg) [cases] | gastric mucosal petechial hemorrhage at gross necropsy ([1]; G3 acetaminophen 300+tramadol HCl 30 mg/kg, G7 polmacoxib 0.3+tramadol HCl 30 mg/kg) [cases] | nodules on the surface of liver at gross necropsy [1] [case] | weight gain at end of test compared to average weight at beginning [2] [%] | cluster formation of chondrocytes, in words [3] | paw withdrawal threshold (PWT) [4, 6] [g] | paw withdrawal threshold (PWT) [4, 7] [g] | gastric tissue analysis / gastric irritation, summary in words [5] | erosion of cardiac gland and fundic gland (stomach histopathology) ([5]; n=10 per group, oral once daily 3 weeks) [cases] | epithelial detachment of cardiac gland (stomach histopathology) ([5]; n=10 per group) [cases] | level of MMP-3 in serum obtained after 3 weeks of treatment, in words (MMP-3)
1 | COc1cccc(C2(O)CCCCC2CN(C)C)c1.Cl (stereo not drawn) [tramadol hydrochloride, 2-(dimethylaminomethyl)-1-(3-methoxyphenyl)] | 3 | 3 | 1 | 18.5 | improvement effects compared to the positive control group G3 | 26.3 | 26.3 | epithelial detachments of cardia and pyloric and erosion | 4 | 2 | –
2 | CC1(C)OC(c2ccc(S(N)(=O)=O)cc2)=C(c2cccc(F)c2)C1=O [polmacoxib, 5-(4-(aminosulfonyl)-phenyl)-2,2-dimethyl-4-(3-fluorophenyl)-3(2H)-furanone] | – | – | – | – | – | 24.2 | 24.2 | epithelial detachment of pyloric | – | 4 | lower MMP-3 levels compared to the groups G3 and G5
